Laboratory results reported in the NIST ThermoML archive (doi:10.1021/je9005618).
Numbers after ± are expanded uncertainties.

Assay: xn = mol fraction of the nth substance listed
Conditions: 101 kPa, Liquid

CCn1cc[n+](C)c1.O=S(=O)([O-])C(F)(F)F [1-ethyl-3-methylimidazolium trifluoromethanesulfonate] + COC(C)=O
Conditions	mass density, 278.15 K [kg/m3]	mass density, 288.15 K [kg/m3]	mass density, 298.15 K [kg/m3]	mass density, 308.15 K [kg/m3]	mass density, 318.15 K [kg/m3]	speed of sound, 278.15 K [m/s]	speed of sound, 288.15 K [m/s]	speed of sound, 298.15 K [m/s]	speed of sound, 308.15 K [m/s]	speed of sound, 318.15 K [m/s]
x1 = 0.0502	1010.1 ± 0.4	997.8 ± 0.37	985.37 ± 0.41	972.78 ± 0.44	960.03 ± 0.48	1259.8 ± 1.4	1215.5 ± 1.4	1171.7 ± 1.4	1128.2 ± 1.3	1084.8 ± 1.3
x1 = 0.1006	1058.3 ± 0.55	1046.52 ± 0.52	1034.65 ± 0.48	1022.69 ± 0.45	1010.6 ± 0.41	1278.4 ± 1.5	1236.5 ± 1.4	1195.1 ± 1.4	1153.8 ± 1.4	1112.8 ± 1.3
x1 = 0.1501	1099.41 ± 0.7	1088.09 ± 0.66	1076.72 ± 0.63	1065.29 ± 0.59	1053.78 ± 0.56	1298.1 ± 1.5	1258.5 ± 1.5	1219.4 ± 1.5	1180.5 ± 1.4	1141.9 ± 1.4
x1 = 0.2001	1135.42 ± 0.84	1124.48 ± 0.81	1113.53 ± 0.77	1102.55 ± 0.73	1091.53 ± 0.7	1316.6 ± 1.6	1279.2 ± 1.5	1242.4 ± 1.5	1205.9 ± 1.5	1169.7 ± 1.5
x1 = 0.3003	1196.62 ± 1.1	1186.31 ± 1.1	1176.03 ± 1.1	1165.76 ± 1	1155.5 ± 0.98	1350.2 ± 1.7	1316.6 ± 1.6	1283.5 ± 1.6	1250.8 ± 1.6	1218.7 ± 1.6
x1 = 0.3999	1243.17 ± 1.4	1233.3 ± 1.4	1223.49 ± 1.3	1213.71 ± 1.3	1203.97 ± 1.2	1376.9 ± 1.8	1346 ± 1.7	1315.8 ± 1.7	1285.9 ± 1.7	1256.7 ± 1.7
x1 = 0.4997	1281.71 ± 1.6	1272.18 ± 1.6	1262.72 ± 1.6	1253.32 ± 1.5	1243.97 ± 1.5	1400 ± 1.9	1371.2 ± 1.9	1343 ± 1.8	1315.5 ± 1.8	1288.5 ± 1.8
x1 = 0.6	1313.96 ± 1.9	1304.71 ± 1.9	1295.53 ± 1.8	1286.43 ± 1.8	1277.38 ± 1.8	1420.4 ± 2	1393.3 ± 2	1366.8 ± 2	1340.9 ± 1.9	1315.6 ± 1.9
x1 = 0.7	1341.07 ± 2.2	1332.05 ± 2.1	1323.1 ± 2.1	1314.23 ± 2.1	1305.42 ± 2	1438.5 ± 2.1	1412.7 ± 2.1	1387.6 ± 2.1	1362.9 ± 2.1	1338.9 ± 2.1
x1 = 0.7986	1363.97 ± 2.5	1355.14 ± 2.4	1346.39 ± 2.4	1337.7 ± 2.3	1329.08 ± 2.3	1454.4 ± 2.2	1429.7 ± 2.2	1405.6 ± 2.2	1382 ± 2.2	1358.9 ± 2.2
x1 = 0.8509	1374.9 ± 2.6	1366.17 ± 2.6	1357.51 ± 2.5	1348.91 ± 2.5	1340.38 ± 2.5	1462.2 ± 2.3	1438 ± 2.3	1414.4 ± 2.3	1391.2 ± 2.3	1368.6 ± 2.2
x1 = 0.9008	1384.25 ± 2.8	1375.61 ± 2.7	1367.03 ± 2.7	1358.51 ± 2.6	1350.04 ± 2.6	1469.1 ± 2.4	1445.3 ± 2.3	1422 ± 2.3	1399.2 ± 2.3	1377 ± 2.3
x1 = 0.9504	1393.09 ± 2.9	1384.52 ± 2.9	1376.02 ± 2.8	1367.58 ± 2.8	1359.19 ± 2.8	1475.6 ± 2.4	1452 ± 2.4	1429.1 ± 2.4	1406.7 ± 2.4	1384.8 ± 2.4
